Data on four compounds can be found in patent US12209135B2, “Anti-CD45 antibodies and conjugates thereof” (priority 2019, dated 2025).

One data set has as its system T-ALL PDX. Nature of the data set: T-ALL patient-derived xenograft (PDX) model. Particulars: for Median Survival (Days Post Implant): Table 24. It is filed as in vivo, immune deficient mice (NSG-SGM3, or NSG). Here is the method: (§1) A panel of models were evaluated to mimic untreated and refractory disease: AML patient derived xenograft (PDX) models (from treatment naïve and relapsed post allogeneic HCT patients; all FLT-3+NPM1+), ALL cells from an immortalized cell line (REH-Luc), and T-ALL patient-derived xenograft (PDX) model (from a patient progressing post DHAP chemotherapy).
(§2) AML #1 was derived from a treatment naïve patient (J000106134) and AML #2 was derived from a heavily pre-treated relapsed refectory patient post allogenic HSCT (J000106132), The T-ALL was derived from a patient progressing post DHAP chemotherapy. The cell line-derived ALL was transduced to express firefly luciferase. Cells of each tumor type were systemically inoculated into immune deficient mice (NSG-SGM3, or NSG).
(§3) Treatment began when peripheral tumor burden of PDX (n=3-5/group), and CDX mice reached 2-16% blast in the peripheral blood or day 5 post implant for the REH-luc model (n=10/group).
For orientation: Xenograft models place foreign cells or tissue in a host animal.

Another data set relates to AML #2 PDX. Nature of the data set: AML patient derived xenograft model AML #2 (relapsed refractory post allogeneic HSCT). It is filed as in vivo, immune deficient mice (NSG-SGM3, or NSG). To be noted: Table 26; 30 mg/kg QDx5. The procedure: as §1, §2, §3
(§4) In the AML patient derived xenograft (PDX) models from treatment naïve and relapsed post allogeneic […] patients, treatment began when 2-16% blasts were detected in the periphery (n=3-5 mice/group/AML PDX model). Mice were treated with a single intravenous dose of anti-human CD45-ADC (AbA-AM), isotype-ADC, or vehicle (PBS). Ara-c was administered intravenously once daily for five consecutive days.

Another data set has as its system AML #1 PDX. Description: AML patient derived xenograft model AML #1 (treatment naïve). It is filed as in vivo, immune deficient mice (NSG-SGM3, or NSG). To be noted: Table 25; 30 mg/kg QDx5. Here is the method: as §1, §2, §3, §4
For another data set, the system named is REH-Luc ALL cells. Nature of the data set: REH-Luciferase ALL xenograft (CDX) model. It is filed as in vivo, immune deficient mice (NSG-SGM3, or NSG). Particulars: Table 23; 3 mg/kg QWx3. Here is the method: as §1, §2, §3
Bioluminescence signal was measured using the IVIS imaging system (PerkinElmer). Radiance (mean±SEM) was captured over a time course of the study. Representative bioluminescence signal pseudo colored images were captured on day 22-23 post-implantation for all treatment groups, as shown in FIG. 29C.

The conditions of data set [1]: Quintieri et al. 2005; cited from earlier work.

Marks after values point to notes of the source that are not given here.

As for `Nc1ccn([C@@H]2O[C@H](CO)[C@@H](O)[C@@H]2O)c(=O)n1` [Ara-C], the “Median Survival (Days Post Implant)” value in the data set on T-ALL PDX (30 mg/kg QDx5) is 77*^† Days; in the data set with AML #2 PDX, 60^†‡ Days; with AML #1 PDX it was 97^† Days.

On to `C[C@@H]1C[C@H]2[C@@H]3CCC4=CC(=O)C=C[C@]4(C)[C@@]3(F)[C@@H](O)C[C@]2(C)[C@@]1(O)C(=O)CO` [Dexamethasone, dexamethasone], for which the “Median Survival (Days Post Implant)” value in the data set on T-ALL PDX (5 mg/kg Q3Dx9) is given as 47*^‡ Days. In addition, the median survival in the data set with T-ALL PDX (text b933, AbA-AM1 single injection 3, or 6 mg/kg on day 5, n=5 mice/group) is 47 days.

In the case of `COc1cccc2c1C(=O)c1c(O)c3c(c(O)c1C2=O)C[C@@](O)(C(=O)CO)C[C@@H]3O[C@H]1C[C@H](N)[C@H](O)[C@H](C)O1` [Doxorubicin, doxorubicin], the “Median Survival (Days Post Implant)” value in the data set with REH-Luc ALL cells is recorded as 50^† Days.

Take `COc1cccc2c1C(=O)c1c(O)c3c(c(O)c1C2=O)C[C@@](O)(C(=O)CO)C[C@@H]3O[C@H]1CC2[C@H](O[C@@H]3[C@@H](OC)OCCN23)[C@H](C)O1` (stereo partly shown) [PNU-159682]: in data set [1], the “cytotoxicity relative to the parent nemorubicin” value is reported as “greater than 3000 fold”.
